Marks after values point to notes of the source that are not given here.
Legend:
p16-3MR mice [1] = experiment: ROC analysis of discriminatory power of circulating microRNAs; format: in vivo, mouse; settings: serum, RT-qPCR, symbol after the number = significance; for ROC Analysis AUC Senescence: DOX vs PBS; for ROC Analysis AUC Senolytic Treatment: DOX/GCV vs DOX
Procedure: (§1) Statistical analysis was performed using Medcalc (version 18.2.1). Normal distribution was assessed using D'Agostino-Pearson test, where normality was accepted at p>0.05. One-way ANOVA together together with Student-Newman-Keuls test for all pairwise comparisons (post-hoc tests) was used to identify significant changes between groups (p<0.05). To assess the discriminatory power of individual microRNAs, receiver operating characteristic (ROC) analysis was applied. ROC curves were plotted using sensitivity (y-axis) and 1-specificity (x-axis) and the area under the ROC curve (AUC) was calculated. MicroRNAs with AUC-values of >0.7 were considered as good discriminators/biomarkers. MicroRNAs with AUC-values >0.8 were considered very good discriminators/biomarkers.
In order to assess the diagnostic power of circulating microRNAs for the exposure with senescence inducing substances (DOX) as well as the efficacy of senolytic treatment, ROC analysis was performed and the area-under-the-curve (AUC) was calculated. […] Table 23 below summarizes AUC values as well as 95% confidence intervals for 24 selected circulating microRNAs.

p16-3MR mice [2] = experiment: RT-qPCR verification of serum circulating microRNA changes, one-way ANOVA; format: in vivo, mouse; settings: for change of serum level following senolytic treatment (DOX/GCV compared to DOX): p<0.05, in words; for One-way ANOVA Senolytic Treatment (DOX/GCV) / One-way ANOVA Senescence (DOX vs PBS): serum; for One-way ANOVA Senolytic Treatment (DOX/GCV): DOX/GCV compared to DOX; for One-way ANOVA Senescence (DOX vs PBS): n=8 per group, male and female mice; for regulation in serum after exposure to DOX compared to PBS: independent of gender, in words
Procedure: p16-3MR (Demaria et al, 2014, Developmental Cell 31:722-733) mice were bred in house and maintained in the AALAC-accredited Buck Institute for Research on Aging (Novato, Calif.) animal facility. 10 to 12-week-old p16-3MR […] mice were used for experiments. Mice were divided in 4 groups and each group consisted of 8 animals, 5 female, and 3 male, respectively. In group A, control mice were injected with PBS. In group B, mice were treated with Ganciclovir (GCV) (Sigma-Aldrich) dissolved in PBS for 5 consecutive days. In group C, mice were treated with one dose of Doxorubicine hydrochloride (Sigma-Aldrich) dissolved in PBS. In group D, mice were first treated with Doxorubicine and then treated 10 days later with GCV. Mice were intraperitoneally injected with one dose of 10 mg/kg of Doxorubicine hydrochloride, and GCV was administered daily by intraperitoneal injections for 5 consecutive days at concentration of 25 mg/kg in PBS. 4 days after the last GCV dose, animals were euthanized with CO2 and blood was withdrawn immediately. Blood was then incubated for 30 min at room temperature and centrifuged at 3400×g for 10 min. Serum was carefully collected in a sterile tube without disturbing the cell pellet and stored at −80° C. for further experiments.
Total RNA extraction was performed from 200 μl of serum using the Qiagen miRNeasy extraction kit (Qiagen, Germany). RNA yield was quality checked for homogenous extraction efficiency and hemolysis on the basis qPCR amplification of spiked-in as well as hemolysis-responsive RNAs (Blondal et al). In total 2 μl total RNA were used for reverse transcription using the Exiqon Universal RT kit II (Exiqon, Denmark). The obtained cDNA samples were pre-diluted 1:40 and subsequently mixed with SYBR Green® Mix (Exiqon, Denmark) to achieve a 1:100 dilution. The mix was distributed to primer-coated 384-well plates containing dried primer pairs for 96 selected microRNA or quality control assays. QPCR amplification was performed on a Roche LightCycler 480 II, using the manufacturer's recommendation for annealing, extension and denaturation.
Raw Cq-values were computed using the 2nd derivative method. Melting curves were checked for peaks to ensure specificity of the amplification reactions. Cq-values were subsequently normalized using Spike-In controls as references, to reduce technical noise in the data.
as §1

p16-3MR mice [3] = experiment: Pearson correlation of serum miRNA levels to miR-34a-5p and miR-27a-3p; set-up: species or system mouse; settings: for Pearson Correlcation coefficient miR44a-5p: correlation of serum level to miR44a-5p (so in the source); for Pearson Correlcation coefficient miR-27a-3p: correlation of serum level to miR-27a-3p
Description: In order to extend these finding to potential additional miRNAs, we performed Pearson correlation to miR-34a-5p and miR-27a-3p, resulting in additional potential biomarkers (Table 18).

Substance	ROC Analysis AUC Senescence (p16-3MR mice [1])	ROC Analysis AUC Senolytic Treatment (p16-3MR mice [1])	change of serum level following senolytic treatment (DOX/GCV compared to DOX) (p16-3MR mice [2])	One-way ANOVA Senolytic Treatment (DOX/GCV) (p16-3MR mice [2])	One-way ANOVA Senescence (DOX vs PBS) (p16-3MR mice [2])	regulation in serum after exposure to DOX compared to PBS (p16-3MR mice [2])	Pearson Correlcation coefficient miR44a-5p (p16-3MR mice [3])	Pearson Correlcation coefficient miR-27a-3p (p16-3MR mice [3])
miR-23b-3p: circulating microRNA biomarker, SEQ ID No. 47 (AUCACAUUGCCAGGGAUUACC; expressed or natural sequence; listed as Homo sapiens)	0.563°	0.875*	significantly changed	* (significant p < 0.05)	○			
miR-31-5p: circulating microRNA biomarker, SEQ ID No. 87 (AGGCAAGAUGCUGGCAUAGCU; expressed or natural sequence; listed as Homo sapiens)	0.688+	0.672°	significantly changed	○	+ (by trend p < 0.2)			
miR-34a-3p: circulating microRNA biomarker, SEQ ID No. 59 (CAAUCAGCAAGUAUACUGCCCU; expressed or natural sequence; listed as Homo sapiens)	0.953*	0.5°		○	* (significant p < 0.05)	significantly (up- or down-regulated)		
miR-125a-5p: circulating microRNA biomarker, SEQ ID No. 90 (UCCCUGAGACCCUUUAACCUGUGA; expressed or natural sequence; listed as Homo sapiens)	0.742+	0.789*	significantly changed	* (significant p < 0.05)	+ (by trend p < 0.2)			
miR-181b-5p: circulating microRNA biomarker, SEQ ID No. 84 (AACAUUCAUUGCUGUCGGUGGGU; expressed or natural sequence; listed as Homo sapiens)	0.680+	0.75+	significantly changed	+ (by trend p < 0.2)	+ (by trend p < 0.2)			
miR-183-3p: circulating microRNA biomarker, SEQ ID No. 85 (GUGAAUUACCGAAGGGCCAUAA; expressed or natural sequence; listed as Homo sapiens)	0.563°	0.891*	significantly changed	* (significant p < 0.05)	○			
miR-199a-5p: circulating microRNA biomarker, SEQ ID No. 81 (CCCAGUGUUCAGACUACCUGUUC; expressed or natural sequence; listed as Homo sapiens)	0.906*	0.781*		+ (by trend p < 0.2)	* (significant p < 0.05)	significantly (up- or down-regulated)		
miR-199b-5p: circulating microRNA biomarker, SEQ ID No. 82 (CCCAGUGUUUAGACUAUCUGUUC; expressed or natural sequence; listed as Homo sapiens)	0.750+	0.734+		+ (by trend p < 0.2)	* (significant p < 0.05)	significantly (up- or down-regulated)		
miR-215-5p: circulating microRNA biomarker, SEQ ID No. 86 (AUGACCUAUGAAUUGACAGAC; expressed or natural sequence; listed as Homo sapiens)	0.531°	0.922*	significantly changed	* (significant p < 0.05)	○			
miR-345-5p: circulating microRNA biomarker, SEQ ID No. 83 (GCUGACUCCUAGUCCAGGGCUC; expressed or natural sequence; listed as Homo sapiens)	0.781*	0.875*		* (significant p < 0.05)	* (significant p < 0.05)	significantly (up- or down-regulated)		
miR-375-5p: circulating microRNA biomarker, SEQ ID No. 88 (UUUGUUCGUUCGGCUCGCGUGA; expressed or natural sequence; listed as Homo sapiens)	0.570°	0.859*	significantly changed	* (significant p < 0.05)	○			
miR-409-3p: circulating microRNA biomarker, SEQ ID No. 89 (GAAUGUUGCUCGGUGAACCCCU; expressed or natural sequence; listed as Homo sapiens)	0.609°	0.859*	significantly changed	* (significant p < 0.05)	○			
miR-483-5p: circulating microRNA biomarker, SEQ ID No. 91 (AAGACGGGAGGAAAGAAGGGAG; expressed or natural sequence; listed as Homo sapiens)	0.563°	0.766*	significantly changed	* (significant p < 0.05)	○			
mmu-miR-10a-3p: circulating microRNA, SEQ ID No. 16 (CAAAUUCGUAUCUAGGGGAAUA; expressed or natural sequence; listed as Homo sapiens)							0.52	0.90
mmu-miR-29a-3p: circulating microRNA, SEQ ID No. 22 (UAGCACCAUCUGAAAUCGGUUA; expressed or natural sequence; listed as Homo sapiens)							0.74	0.74
mmu-miR-30b-5p: circulating microRNA, SEQ ID No. 9 (UGUAAACAUCCUACACUCAGCU; expressed or natural sequence; listed as Homo sapiens)							0.70	0.65
mmu-miR-191-5p: circulating microRNA, SEQ ID No. 18 (CAACGGAAUCCCAAAAGCAGCUG; expressed or natural sequence; listed as Homo sapiens)							0.32	0.81
mmu-miR-223-3p: circulating microRNA, SEQ ID No. 19 (UGUCAGUUUGUCAAAUACCCCA; expressed or natural sequence; listed as Homo sapiens)							0.55	0.83

From patent US11814680B2, “Biomarkers for detecting senescent cells” (Universität für Bodenkultur Wien, priority 2017, dated 2023)
